# Results from patent US20250331522A1, “CHLORINE DIOXIDE […] TO PREVENT BLACK ROT DISEASE AND PROMOTE WOUND HEALING IN SWEETPOTATO” (Zhejiang A&F University, priority 2024, published 2025).
# Experiments:
# C. fimbriata = experiment: Inhibition of C. fimbriata in vitro (colony diameter on PDA plate after ClO2 fumigation); type: cell-based, Ceratocystis fimbriata; conditions: ClO2 fumigation 4 h, culture 15 d
# Experimental: C. fimbriata preserved at −80° C. is thawed and resuscitated at 4° C., 200 μL C. fimbriata is taken into 15 mL PDA medium plates in the ultra-clean table and cultured at 28° C. for 7 d. After 7 d, 5 colonies of C. fimbriata are picked on the medium and inoculated into the expanding culture medium with an inoculation needle for further culture for 7 d. After 7 days, some of the expanding culture plates are used to prepare fungus pieces, and some plates are used to prepare spore suspension. […] The spore concentration is calculated by the blood cell counting plate, and adjusted to 10^6 spore/mL. […]
# The expanding culture plate of C. fimbriata cultured in Embodiment 4 is selected, and the fungus piece is prepared by using a 10 mm sterile puncher, the fungus piece is reversely connected to the center of the PDA medium, and the PDA plate is placed in a 10 L fresh-keeping box, and the combined reagents prepared by the method described in Embodiments 1-3 are added, the plate is fumigated with ClO2 for 4 h, the culture plate is moved into a constant temperature incubator at 27° C. for 15 d after the treatment. The colony diameter of the culture plate is measured by the cross method every 3 days, the measurement is repeated three times, and the plate without ClO2 fumigation is used as the blank control.
# [1] = system: sweetpotato wounds inoculated with C. fimbriata; experiment: Promotion of wound-healing ability of sweetpotatoes (disease index after re-inoculation with C. fimbriata); type: in vivo, Xinxiang sweetpotatoes; Ceratocystis fimbriata; conditions: fumigation 30 h; spores applied on day 0, 1, 3, 5, 7 of healing; incidence counted after 7 days
# Experimental: The effects of the combined reagents prepared by the method described in Embodiments 1-3 on promoting the wound-healing ability of sweetpotatoes are investigated, the method is as follows: […]
# After the treatment, the fresh-keeping box is first ventilated, and the sweetpotatoes are transferred into a normal storage incubator (25° C., humidity 85%) for storage. During the storage of sweetpotatoes, 20 μL of fungus solution with a spore concentration of 10^6 spore/mL prepared in Embodiment 4 is evenly applied to the surface of the wounds on the 0th, 1st, 3rd, 5th and 7th day, respectively, the incidence of the disease after 7 days is counted and the disease index is calculated. […] The sweetpotatoes with perforation damage but without ClO2 treatment are used as the control group, and the disease index is calculated by the following formula: […]
# [2] = system: C. fimbriata in sweetpotato; experiment: Inhibitory effect on the growth of C. fimbriata in inoculated sweetpotato (lesion diameter and depth); type: in vivo, Ceratocystis fimbriata; Xinxiang sweetpotatoes; conditions: fumigation 30 h, storage 15 days at 25° C., humidity 85%
# Experimental: C. fimbriata preserved at −80° C. is thawed and resuscitated at 4° C., 200 μL C. fimbriata is taken into 15 mL PDA medium plates in the ultra-clean table and cultured at 28° C. for 7 d. After 7 d, 5 colonies of C. fimbriata are picked on the medium and inoculated into the expanding culture medium with an inoculation needle for further culture for 7 d. After 7 days, some of the expanding culture plates are used to prepare fungus pieces, and some plates are used to prepare spore suspension. Sterile water is added into the culture plate, the mycelium is scraped and filtered through four layers of sterile gauze to remove the mycelium and medium impurities, and the spore suspension of C. fimbriata is obtained. The spore concentration is calculated by the blood cell counting plate, and adjusted to 10^6 spore/mL.
# The inhibitory effect of the combined reagents prepared by the method described in Embodiments 1-3 on the growth of C. fimbriata in sweetpotato is investigated, the method is as follows: […]
structure (smiles),measurement,setting,value
"[O][Cl+][O-] [ClO2, chlorine dioxide]",growth of C. fimbriata (in words),C. fimbriata,directly inhibit the growth of C. fimbriata
same,"resistance to infection / wound healing of sweetpotatoes (disease index, in words)",[1],after 5 days of healing can completely resist the infection of pathogenic fungus
same,diameters and depths of the lesion of inoculated sweetpotatoes (in words),[2],decreases significantly with the increase of treatment concentration
